{"source": "patent US20240300975A1", "about": "“DIMETHYL-SUBSTITUTED THIAZOLOLACTAM COMPOUND AND USE THEREOF” (D3 Bio (Wuxi) Co., Ltd., priority 2021, published 2024)", "key": {"mouse plasma albumin": {"test_system": "mouse plasma albumin", "assay": "Plasma protein binding (PPB), mouse plasma", "assay_type": "in vitro ADME", "settings": "ultracentrifugation, 37° C., 4 h", "protocol": "The binding degree of the assay compound to human/mouse/rat/canine/monkey plasma albumin was studied.\n• 1) Matrix preparation: on the day of the assay, plasma was thawed in cold water and centrifuged at 3220 rpm for 5 min to remove all clots. The pH of the resulting plasma was measured and adjusted to 7.4±0.1 using 1% phosphoric acid or 1N sodium hydroxide as needed. • 2) Dilution procedure for the assay compound: the assay compound was dissolved in dimethyl sulfoxide (DMSO) to prepare stock solutions with concentrations of 10 mM and 2 mM, respectively. A 40 μM working solution was prepared by diluting 2 μL of stock solution (2 mM) with 98 μL of DMSO. A 400 μM working solution of the control compound was prepared by diluting 10 μL of stock solution with 240 μL of DMSO. The working solution of the compound (5 μL) was mixed well with a blank matrix (995 μL) at a ratio of 1:200 to prepare a loading matrix.\n• a) An equal volume of 30 μL of loading matrix (n=2) was transferred to a sample collection plate to prepare a time 0 (TO) sample for residue determination. The sample was immediately matched with the corresponding blank buffer to a final volume of 60 μL, and the volume ratio of plasma to buffer in each well was 1:1. […] The mixture was centrifuged at 4000 rpm for 20 min and 100 μL of supernatant from each sample was analyzed by LC-MS/MS."}, "hERG potassium channel": {"molecular_target": "hERG potassium channel (Homo sapiens (Human), UniProt Q12809)", "sequence (Q12809 whole entry)": "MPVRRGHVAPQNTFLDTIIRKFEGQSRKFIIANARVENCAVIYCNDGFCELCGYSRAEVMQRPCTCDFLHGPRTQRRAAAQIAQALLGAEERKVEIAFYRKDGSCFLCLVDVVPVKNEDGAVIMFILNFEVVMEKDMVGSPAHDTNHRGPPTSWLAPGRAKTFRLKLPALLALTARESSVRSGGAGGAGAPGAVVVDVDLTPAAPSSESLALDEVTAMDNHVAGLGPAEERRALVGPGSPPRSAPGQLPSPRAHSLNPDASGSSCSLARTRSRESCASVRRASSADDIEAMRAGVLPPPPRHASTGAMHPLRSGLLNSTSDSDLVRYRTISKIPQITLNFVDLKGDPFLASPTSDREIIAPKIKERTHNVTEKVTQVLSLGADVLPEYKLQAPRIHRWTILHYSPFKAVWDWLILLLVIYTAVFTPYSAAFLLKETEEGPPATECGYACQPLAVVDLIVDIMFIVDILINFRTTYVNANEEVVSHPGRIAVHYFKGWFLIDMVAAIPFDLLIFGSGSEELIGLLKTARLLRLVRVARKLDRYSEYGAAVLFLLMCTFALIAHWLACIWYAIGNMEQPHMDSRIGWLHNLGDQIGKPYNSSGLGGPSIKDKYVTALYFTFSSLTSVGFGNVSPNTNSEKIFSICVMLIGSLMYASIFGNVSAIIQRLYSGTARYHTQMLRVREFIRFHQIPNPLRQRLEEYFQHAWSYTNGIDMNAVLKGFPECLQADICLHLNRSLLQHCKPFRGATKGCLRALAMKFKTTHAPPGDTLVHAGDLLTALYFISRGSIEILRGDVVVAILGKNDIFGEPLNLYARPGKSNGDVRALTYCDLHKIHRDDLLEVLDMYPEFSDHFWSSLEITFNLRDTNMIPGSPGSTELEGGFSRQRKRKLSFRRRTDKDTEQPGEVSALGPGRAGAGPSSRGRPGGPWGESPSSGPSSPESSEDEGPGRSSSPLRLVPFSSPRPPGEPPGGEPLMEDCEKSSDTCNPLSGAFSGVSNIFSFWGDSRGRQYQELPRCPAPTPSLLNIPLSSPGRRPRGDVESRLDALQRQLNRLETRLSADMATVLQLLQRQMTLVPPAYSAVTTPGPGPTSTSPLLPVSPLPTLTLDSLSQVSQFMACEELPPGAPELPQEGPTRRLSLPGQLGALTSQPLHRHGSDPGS", "assay": "hERG assay (automated patch-clamp, CHO-hERG cells)", "assay_type": "cell-based", "settings": "Qpatch, highest assayed concentration 40 μM", "protocol": "A fully automated patch-clamp method was used to assay the effect of the compound on hERG potassium channel (human Ether-a-go-go Related Gene potassium channel) current.\nCHO-hERG cells were cultured in a 175 cm^2 culture flask. When cells grew to a density of 60˜80%, the culture medium was removed. Cells were washed once with 7 mL of PBS (Phosphate Buffered Saline), and then 3 mL of Detachin was added for digestion. After the digestion was completed, 7 mL of culture medium was added for neutralization, and then the mixture was centrifuged. The supernatant was aspirated, and then 5 mL of culture medium was added to resuspend the cells and ensure that the cell density was 2˜5×10^6/mL.\nExtracellular solution formulation (mM): 140 NaCl, 5 KCl, 1 CaCl2), 1.25 MgCl2, 10 HEPES and 10 Glucose; the formulation was adjusted to pH of 7.4 with NaOH. […]\nThe single-cell high-impedance sealing and whole-cell pattern formation processes were all automatically performed by a Qpatch instrument. […] This voltage stimulation was applied every 15 seconds, and recorded for 2 minutes. The extracellular solution was then given, and recorded for 5 minutes. […]\nAssay data were analyzed by GraphPad Prism 5.0 software. […]\n• The inhibitory effect of Cisapride with multiple concentrations on the hERG channel was measured as a positive control."}}, "data": [{"smiles": "Cc1cccc(CN2C(=O)c3nc(-c4nc(Nc5ccnn5C)ncc4C)sc3C2(C)C)n1", "note": "[WX001]", "values": [{"measurement": "Plasma protein binding rate (unbound %)", "setting": "mouse plasma albumin", "value": 7.2, "unit": "%"}, {"measurement": "IC50", "setting": "hERG potassium channel", "value": "> 40", "unit": "µM"}]}]}
